Experimental data published in article PMC7926495, “Preclinical Pharmacokinetics and Biodistribution of Anticancer Dinuclear Palladium(II)-Spermine Complex (Pd2Spm) in Mice” (Pharmaceuticals, 2021).

What was measured:
HCC-1143 cells = experiment: In vitro cellular drug uptake/accumulation by ICP-MS; format: cell-based, human; conditions: 24 h; for dependence of cellular drug uptake on drug concentration in medium: 2-8 µM
Protocol: (§1) The in vitro studies were performed on human triple-negative (lack of estrogen receptors, progesterone receptors and HER2 overexpression) breast cancer cell lines MDA-MB-231 and HCC-1143, which were purchased from the Leibniz Institute DSMZ-German Collection of Microorganisms and Cell Cultures GmbH, Germany. MDA-MB-231 were cultured in DMEM-HG cell culture medium supplemented with 10% (v/v) FBS, and HCC-1143 cells were cultured in RPMI-1640 cell culture medium supplemented with 20% (v/v) FBS. Cells were maintained in a sterile environment at 37 °C with a 5% CO2 humidified atmosphere and were routinely tested for mycoplasma contamination.
(§2) The intracellular Pt and Pd accumulation in MDA-MB-231 and HCC-1143 cells was analyzed using ICP-MS. First, 3 × 10^4/cm^2 cells were seeded in T75 culture flasks and allowed to attach for 24 h. […] The cells were trypsinized, washed twice with ice-cold 0.9% saline solution, and 10^6 cells were pelleted and freeze-dried. The lyophilized cell pellets were digested and analyzed using the same analytical procedure described for the pharmacokinetic study. […] The protein concentration used for the data normalization was determined from identical samples that were prepared in parallel and quantified with the Bradford protein assay.

MDA-MB-231 cells = experiment: as above; format: cell-based, human; conditions: 24 h; for dependence of cellular drug uptake on drug concentration in medium: 2-8 µM
Protocol: as §1, §2

[1] = design: species or system Balb/c mice; conditions: mouse, in vivo; for Tmax: ip
Protocol: After drug administration, five animals from each group were euthanized at selected time-points (0.5, 1, 6, 12, 24 and 48 h) with pentobarbital intraperitoneal injection (120 mg/kg) followed by cardiac puncture for blood collection. Blood serum was separated after leaving the blood to coagulate for 30 min at room temperature and centrifugation (at 500× g, and 4 °C for 15 min). […] Both blood serum and serum ultrafiltrate were aliquoted (50 μL) and stored at −80 °C until ICP-MS analysis. Right brain hemisphere, liver, lungs, heart, right kidney, ovaries, abdominal white adipose tissue and abdominal mammary glands were excised at the same time, washed in cold PBS, blotted dry on filter paper and weighed. Solid tissues were freeze-dried (0.016 mBar, −80.8 °C, 48 h; Telstar®, model Cryodos Barcelona, Spain) and stored hermetically sealed at −80 °C until ICP-MS analysis.
Briefly, 50 μL of blood serum, 50 μL of serum ultrafiltrate and weighed entire freeze-dried organs/tissues (up to 50 mg) were placed into 10 mL polypropylene conical tubes. In the case of liver, for which the weight surpassed 50 mg, the tissue was first pulverized with a Precellys® Evolution tissue homogenizer (Bertin-Instruments, Montigny-le-Bretonneux, France) using 2.8 mm stainless steel beads (two cycles of 10 s at 6000 rpm speed) and accurately weighed (50 mg) in tubes. Samples were digested directly in tubes with 0.9 mL of HNO3 (≥69.0% w/w) plus 0.3 mL of HCl (37% w/w) in a water bath at 90 °C for 1 h. Sample digests were cooled to room temperature, 0.5 mL of a 100 µg/L internal standards (IS) solution was added and the final volume was adjusted to 5 mL with ultrapure water (final concentration of IS = 10 µg/L). Prior to ICP-MS analysis, samples were further diluted 5-fold with a diluent solution (2% HNO3 + 3% HCl + 10 µg/L IS). An iCAP^TM Q (Thermo Fisher Scientific, Bremen, Germany) ICP-MS was used for the determination of Pd and Pt in the obtained solutions. Calibration standards ranging from 0.025 to 100 µg/L were prepared from the 100 mg/L multi-element commercial TraceCERT®, ICH Q3D oral, Standard 2 solution. The IS solution was prepared at 100 µg/L by appropriate dilution of the ICP-MS-200.8-IS-1 solution.
The mean concentrations of Pd or Pt in serum and serum ultrafiltrate were plotted logarithmically versus time. Non-compartmental analysis was performed on sparse data with 1/Y^2 weighting, which was selected based on the highest correlation coefficients and agreement between observed versus predicted pharmacokinetic parameters. […] The area under the curve (AUC) from time zero to the last time with quantified concentration (AUC0-48h) was calculated by a linear log trapezoidal (linear up log down) method. The AUC from time zero to infinity (AUC0−∞) was extrapolated as AUC0−48 h + C48h/λz, where C48h is the last measured concentration, and λz is the elimination constant rate calculated using linear regression of the terminal portion of the log–linear serum concentration–time curve. The drug half-life (t1/2) was calculated as ln2/λz. The rate of total clearance (CL/F) of the compound was calculated as the administered metal dose divided by the AUC0−∞. The distribution volume based on the terminal phase (Vz/F) was calculated as dose/[λz.AUC0−∞].

H2AX histone (γH2AX) = test system: H2AX histone (γH2AX); design: method as in PMID 21371266; conditions: cited from earlier work
plasma proteins = conditions: mouse, in vivo
Protocol: After drug administration, five animals from each group were euthanized at selected time-points (0.5, 1, 6, 12, 24 and 48 h) with pentobarbital intraperitoneal injection (120 mg/kg) followed by cardiac puncture for blood collection. Blood serum was separated after leaving the blood to coagulate for 30 min at room temperature and centrifugation (at 500× g, and 4 °C for 15 min). […] Both blood serum and serum ultrafiltrate were aliquoted (50 μL) and stored at −80 °C until ICP-MS analysis.
Briefly, 50 μL of blood serum, 50 μL of serum ultrafiltrate and weighed entire freeze-dried organs/tissues (up to 50 mg) were placed into 10 mL polypropylene conical tubes. In the case of liver, for which the weight surpassed 50 mg, the tissue was first pulverized with a Precellys® Evolution tissue homogenizer (Bertin-Instruments, Montigny-le-Bretonneux, France) using 2.8 mm stainless steel beads (two cycles of 10 s at 6000 rpm speed) and accurately weighed (50 mg) in tubes. Samples were digested directly in tubes with 0.9 mL of HNO3 (≥69.0% w/w) plus 0.3 mL of HCl (37% w/w) in a water bath at 90 °C for 1 h. Sample digests were cooled to room temperature, 0.5 mL of a 100 µg/L internal standards (IS) solution was added and the final volume was adjusted to 5 mL with ultrapure water (final concentration of IS = 10 µg/L). […]

[2] = mouse, in vivo
Protocol: After drug administration, five animals from each group were euthanized at selected time-points (0.5, 1, 6, 12, 24 and 48 h) with pentobarbital intraperitoneal injection (120 mg/kg) followed by cardiac puncture for blood collection. Blood serum was separated after leaving the blood to coagulate for 30 min at room temperature and centrifugation (at 500× g, and 4 °C for 15 min). […] Both blood serum and serum ultrafiltrate were aliquoted (50 μL) and stored at −80 °C until ICP-MS analysis. Right brain hemisphere, liver, lungs, heart, right kidney, ovaries, abdominal white adipose tissue and abdominal mammary glands were excised at the same time, washed in cold PBS, blotted dry on filter paper and weighed. […]
The mean concentrations of Pd or Pt in serum and serum ultrafiltrate were plotted logarithmically versus time. […] The area under the curve (AUC) from time zero to the last time with quantified concentration (AUC0-48h) was calculated by a linear log trapezoidal (linear up log down) method. […] The drug half-life (t1/2) was calculated as ln2/λz. The rate of total clearance (CL/F) of the compound was calculated as the administered metal dose divided by the AUC0−∞. The distribution volume based on the terminal phase (Vz/F) was calculated as dose/[λz.AUC0−∞].

[3] = test system: albumin / plasma proteins; conditions: rodents, 3 h post-administration; cited from earlier work

| Compound | dependence of cellular drug uptake on drug concentration in medium (HCC-1143 cells) | dependence of cellular drug uptake on drug concentration in medium (MDA-MB-231 cells) | concentration of free Pd/Pt in serum ultrafiltrate at 48 h [1] | Tmax [1] | intracellular accumulation compared to cisplatin (HCC-1143 cells; equimolar 2-8 µM) | intracellular accumulation compared to cisplatin (MDA-MB-231 cells; equimolar 2-8 µM) | phosphorylation of H2AX histone (γH2AX) compared to cisplatin (H2AX histone (γH2AX)) | decrease of fraction bound to plasma proteins at 48 h compared to the preceding period (plasma proteins) | higher accumulation of Pd relative to Pt [2] | lower accumulation of Pd than Pt (dose-normalized AUC) [2] | bound to albumin (mostly via irreversible covalent bonds) [3] |
| --- | --- | --- | --- | --- | --- | --- | --- | --- | --- | --- | --- |
| N.N.[Cl][Pt][Cl] [Cisplatin, cis-dichlorodiammine platinum(II), reference compound] | increase linearly with drug concentration | increase linearly with drug concentration | 4.1 ng/mL | 30 min |  |  |  |  |  |  |  |
| [Cl][Pd-2]1([Cl])[NH2+]CCC[NH+]1CCCC[NH+]1CCC[NH2+][Pd-2]1([Cl])[Cl] (stereo not drawn) [Pd2Spm] | increase linearly with drug concentration | increase linearly with drug concentration | 2.3 ng/mL | 30 min | lower intracellular Pd2Spm increase as compared to cisplatin | lower intracellular Pd2Spm increase as compared to cisplatin | more extensive phosphorylation of H2AX histone | 3.1% | 74.2% | 82.7% |  |
| O=C(O)C(=O)O.[NH-][C@@H]1CCCC[C@H]1[NH-].[Pt+2] [oxaliplatin] |  |  |  |  |  |  |  |  |  |  | > 85% |
